Data published in US20070065472A1, “Benzyl-1,3-thiazolidine-2,4-dione compounds for stimulating or inducing the growth and/or for reducing the loss of keratin fibers” (L'OREAL, priority 2005, published 2007).

O=C1NC(=O)C(Cc2ccccc2Oc2ccccc2)S1 (stereo not shown) [Example 1, 5-(2-phenoxybenzyl)-1,3-thiazolidine-2,4-dione]
melting point: 84 to 85 °C
